Data set [1] has as its system heart rate response to isoproterenol (β-adrenergic). The data set can be described thus: Heart rate response to isoproterenol in rats (initial drug screening). Type of data set: in vivo, male Spraque-Dawley rats. The following applies: 6 mg/kg i.p. The text has this: Initial Drug Screening Protocol. Thirty-two male Spraque-Dawley rats (Blue Spruce Farms) initially weighing 300-450 gm were divided into seven different groups, each for a different drug to be tested: 12(n=4), 14(n=4), 17(n=5), 13(n=4) and 18(n=3), corresponding to the designated compounds 12, 14, 17, 13 and 18 (number of animals), respectively. The other two groups were controls (n=8, isoproterenol alone pretreated with carrier) and those treated with a known β-blocker, dl-propranolol (n=3). Ech animal was anesthetized with sodium pentobarbital (45 mg/kg) and the carotid artery was cannulated with PE-50 tubing. The cannula was subcutaneously threaded around the neck and exteriorized dorsally between the shoulder blades. Th cannula was filled with a heparin solution (300 μg/mL) and sealed with a solid 22 gauge stylet. The animals were housed in individual stainless steel cages, and two days were allowed for recovery from the surgery. Food and water were provided ad libitum. On the day of the experiment, the blood pressure and heart rate of each rat were monitored with a pressure transducer (Narco-Bio model P-1000) and the data recorded on a four-channel physiograph (Narco-Bio systems Marck IV). One hour was allowed as an equilibration period before any drugs were administered. All beta blockers were administered intraperitoneally at a dose of 6 mg/kg. Compounds 12 and 14 and dl-proranolol were dissolved in normal saline while compounds 13, 17 and 18 were dissolved in an ethanol: water solution (3:1). Depending on the trial, controls were administered the appropriate carrier. One hour after administration of the blocker, isoproterenol (Isuprel®, Wintrop Laboratories) was administered subcutaneously at a dose of 25 μg/kg. Blood pressures and heart rate also were recorded 3, 5, 10, 15, 20, 30, 45 and 60 minutes after isoproterenol administration. Both control and experimental animals were unrestrained and free moving in their home cage throughout the experiment. […] However, significant differences in the mean heart rate response amoung the 7 groups were observed: *p<0.005;**p<0.025. Comparisons between groups were made by the Newman-Keuls procedure with significance set at the 95% confidence interval. […] All data are shown as mean±standard error of the mean.

The nature of data set [2]: Enzymatic hydrolytic cleavage in human plasma. Type of data set: in vitro ADME. Conditions: for half-life at 1000 µM: human, plasma. On the procedure:
Analytical Methods. A high pressure liquid chromatography (HPLC) method was developed for the determination of the rate constants. The chromatographic analysis was performed in a system consisting of Waters Associates Model 600-A Solvent Delivery System, Model U-6K Injector and Model 440 Dual Channel Absorbance Detector operated at 254 and 280 nm. A 30 cm×3.9 mm (internal diameter) reverse phase μBondpack C18 column (Waters Associates), operated at ambient temperature, was used for all separations. When plasma samples were analyzed, the column was protected with a 2.3 cm×3.9 mm (internal diameter) Guard Column (Waters) packed with μBondpack C18/Corasil packing material. The mobile phase used for the separation of 17 and its degradation product, 5, consisted of water, 1-hexane sulfonic acid in acetic acid (B-6 reagent, Waters), 0.1M triethanolamine and methanol (100:1:100:799). […] For the separation of compounds 10-16 and 18 and their degradation product 5, a mobile phase consisting of water, 1-hexane sulfonic acid in acetic acid (B-6 reagent, Waters), 0.1M triethanolamine and methanol (390:1:10:599) was used.
Determination of the Hydrolytic Rate Constants in Aqueous Solutions. A 0.01M phosphate buffer and 0.01N sodium hydroxide solution were prepared from freshly distilled deionized water. This ionic strength was maintained at 0.1M with sodium chloride. The pH of the phosphate buffer was determined at 37.0° C. with a pH meter standardized at this temperature. For determination of the hydrolytic rate constants, a fresh concentrated solution of the ester in methanol was added to the hydrolytic medium previously equilibrated to the desired temperature and mixed thoroughly to result in an initial concentration of about 5×10^-4 mol. liter^-1. All reactions were run under pseudo first order conditions. Samples of 25 μL were injected into the column at various time intervals and the pseudo first order rate constants were determined from disappearance of the compound by linear regression of natural logarithm of the peak height versus time plots. The half-life and standard error of the rate constant were calculated for each run.
Determination of the Enzymatic Hydrolytic Cleavage Rates in Human Plasma. The freshly collected plasma used was obtained from the Civitan Regional Blood Center, Inc. (Gainesville, Fla.) and contained about 80% plasma diluted with anticoagulant citrate phosphate dextrose solution, U.S.P. The plasma was stored in a refrigerator and used within one week from the date it was collected.
A portion of 50 μL of a freshly prepared solution of the compound in methanol was added to 10 mL plasma, previously equilibrated at 37.0° C. in a water bath, and mixed thoroughly to result in an initial concentration of 1×10^-3 mol. liter^-1. One mL samples of plasma were withdrawn from the test medium, mixed immediately with 4.0 mL ice cold 95% v/v ethanol, centrifuged and the supernatant analyzed by HPLC. The first order hydrolytic rate constant was determined as before in the aqueous solutions and the results are listed in TABLE II below.

Data set [3] relates to heart rate response to isoproterenol (β-adrenergic). Briefly: Duration of action study, heart rate in rats. The data set is classed as in vivo, male Sprague Dawley rats. Conditions: 6 mg/kg i.p.; for resting heart rate prior to isoproterenol: mean ± SEM. The protocol: Duration of Action Studies. An additional 38 male Sprague Dawley rats (Blue Spruce Farms) initially weighing 268 to 290 gm were anesthetized with sodium pentobarbital (45 mg/kg i.p.), and the carotid artery was cannulated as previously described. On the day of experimentation, after a one-hour equilibration period, initial baseline conditions of basal heart rate and mean blood pressures were recorded. The beta blocker (17) was administered intraperitoneally at a dose of 6 mg/kg. The drug was dissolved in an ethanol: water solution (3:1). This carrier was administered in the control rats. Isoproterenol (Isurprel®, Wintrop Laboratories) was then administered (25 μg/kg s.c.), either 15(n=13), 60(n=12) or 90(n=12) minutes after the beta blocker was administered. Blood pressures and heart rates were recorded at 3, 5, 10, 15, 20, 30, 45 and 60 minutes after isoproterenol administration in all three trials. Both control and experimental animals were unrestrained and free moving in their home cages throught the experiment. Heart rates and mean blood pressure were calculated from the data and a one-way ANOVA was determined at each time interval. The results are shown in FIG. 2 for control vehicle and compound 17 at 15(), 60() and 90() minutes prior to isoproterenol administration at time zero. Resting heart rates were similar in all 4 groups prior to administration of isoproterenol; 342±12; 375±14; 372±19 and 385±17 beats/minute, respectively. […] Data are shown as mean±standard error of the mean.

Entries after “also recorded” stand apart in the source; their conditions may differ. Counter-ions that a name gives are not always drawn. Like-named read-outs stand apart in the source and are kept apart here.

On to `CC(C)NCC(O)COc1ccc(CC(=O)OC2CC(C)(C)CC(C)(C)C2)cc1` (stereo not drawn) [Compound 17, 3,3,5,5-Tetramethylcyclohexyl 4-(2-hydroxy-3-isopropylamino)propoxyphenylacetate oxalate 3/4 hydrate], for which the “mean heart rate response to isoproterenol, comparison between groups” value in data set [1] (1 hour before isoproterenol 25 μg/kg s.c., Newman-Keuls, first 20 minutes (17) or first 30 minutes (propranolol)) is “significantly different from both control- and compound 18-treated groups”. For the same molecule, the “control of heart rate 60 minutes after administration” value in data set [1] (FIG. 1) was “effectively control the heart rate”. For the same molecule, the “mean heart rate response to isoproterenol vs groups treated with compound 12 and 18” value in data set [1] (10 through 45 minutes following isoproterenol) is “significantly different than the groups treated with compound 12 and 18”. In addition, in data set [1] (mean ± SEM), the “resting heart rate prior to administration of isoproterenol” value was found to be 372±19 beat/minute. For the same molecule, the “Observed first order hydrolytic rate constant k” value in data set [2] (37.0 ± 0.1° C., ± SEM) came to 0.566 ± 0.027 min⁻¹. In addition, the half-life at 1000 µM in data set [2] (37.0 ± 0.1° C., read-out: Half-life t1/2) was 1.22 min; in data set [2] (read-out: in vitro plasma half-life) it was ~1 min. In addition, the “heart rate response to isoproterenol” value in data set [3] (15 or 60 minutes prior to isoproterenol 25 μg/kg s.c., FIG. 2, hydrate) is given as “attentuated heart rate response; also recorded: significant activity on heart rate”. Besides, the “resting heart rate prior to isoproterenol” value came out at 375±14 beats/minute in data set [3] (15 minutes prior to isoproterenol), 372±19 beats/minute in data set [3] (60 minutes prior to isoproterenol) and 385±17 beats/minute in data set [3] (90 minutes prior to isoproterenol). For the same molecule, the “heart rate activity at 90 minutes” value in data set [3] (90 minutes prior to isoproterenol, FIG. 2) is recorded as “disappears at 90 minutes”.

For the origin of these results see patent US4829086A, “Soft β-adrenergic blocking agents” (priority 1985, dated 1989).
